Assay [1] addresses T1, HLA-A2 molecules in T2 cells (Homo sapiens, UniProt P04439, D140Y/D185E/D98H/E176V/E277Q/G131W/G231S/I119V/I121R/I166T/I218V/L300P/L318F/N151K/N90K/P208A/P217A/Q86G/Q94H/R138H/R169H/T345S).
T1 construct: HLA-A2 molecules that are synthesized in a transporter associated with antigen processing (TAP)-deficient cell line, T2; host or cells: T2 cells (TAP-deficient human cell line)
Kind of assay: HLA-A2 Stabilization Assay (peptide binding, T2 cells, flow cytometry). More on the design: key: Strong (S); Median (M); Weak (W); None (N). The source says: The assay for peptide binding to class I major histocompatibility complex (MHC/HLA-A2) molecules is based on the ability of peptides to stabilize MHC class I, HLA-A2 molecules that are synthesized in a transporter associated with antigen processing (TAP)-deficient cell line, T2 (ATCC® Number: CRL-1992). The extent of stabilization of MHC class I molecules is directly related to the binding affinity of the added peptides (Townsend et al., Cell. 1990 Jul. 27; 62(2):285-95; Andersen et al., Tissue Antigens. 1999 August; 54(2):185-90).
For the assay, T2 cells were plated in 96-well V-bottom plates, 100 ul/well RPMI media, at a density of 1×10^6 cells/ml, with final peptide concentrations of 200 uM, 20 uM, 2 uM, 200 nM, 20 nM, 2 nM, and no peptide as negative control. The cells with peptides were incubated for 18 hours at 26° C., 5% CO2. After 18 hours, the plates were transferred to 37° C., 5% CO2 and incubated for an additional 3 hours. The cells in plate were washed once with FACS buffer (PBS, 2.5% FCS, 1% NaN3) and then stained by adding 1 ul/well FITC-labeled mouse anti-human HLA-A2 antibody (BD Pharmingen, Cat. No. 551285), 1 ul/well PI, and then incubating at 4° C. for 30 minutes. After staining, cells were resuspended in 200 ul of FACS buffer and transferred from 96-well plates to racks of 96 microtubes. Samples were run on a FACScan flow cytometer and the data were analysed by using CellQuest software.
A peptide of Hepatitis B Core protein (HBC) was used as a positive control. The Hepatitis B Core peptide is a potent HLA-A2.1 epitope and consists of residue numbers 18-27 of the core sequence, amino acids […] (SEQ ID NO:73) (Zhang et al. Immunology. 2007, 121(1):105-12).

In assay [2] the test system is T2 cells loaded with individual peptides. Kind of assay: 51Cr Release Assay for activity of CTL generated with peptide-loaded Drosophila aAPC. The assay is classed as cell-based, human. Particulars: for Induction of CTL in two normal donors: Donor 1 and Donor 2, FIG. 3 and FIG. 4; for CTL Activities Strong: number of donors that elicited Strong activity over total number of donors; for CTL Activities Strong / CTL Activities Weak / CTL Activities None: T2 targets loaded with individual peptide; for CTL Activities Weak: number of donors that elicited Weak activity over total number of donors; for CTL Activities None: number of donors that elicited no activity over total number of donors. As for the experimental part:
Drosophila aAPC were generated from Schneider S2 cells (S2 cells), which were originally established in 1969 from several hundred Oregon-R (wild type) Drosophila melanogaster (Oregon-R) embryos (American Type Culture Collection (ATCC) CRL-1963) according to published procedures (Schneider, J. Embryol. Exp. Morph. 1972 Vol 27, pp. 353-365), and deposited in the ATCC(CRL10974). S2 cells are grown in commercial Schneider's Drosophila medium supplemented with 10% heat-inactivated fetal bovine serum. In order to generate aAPCs, human complementary DNAs (cDNAs) for HLA-A2.1, B7.1, LFA-3, ICAM-1 and CD70, were individually inserted into the pRmHa-3 vector and S2 cells were transfected using the calcium phosphate precipitation method with a mixture of HLA-A2.1, B7.1, LFA-3, ICAM-1 and CD70 plasmid DNAs (for aAPC clone 1120) and the phshneo plasmid. (see U.S. Pat. No. 6,225,042 regarding construction and use of pRMHa plasmid vectors). The human cDNAs were prepared using standard techniques by reverse transcription-PCR using primers derived from the published sequences for HLA-A2.1 from K562 cells, B7.1 from K562 cells, LFA-3 from HL60 cells, ICAM-1 from K562 cells, and CD70 from HLA-A2.1+LCL cells. K562 cells are a human erythroleukemic cell line, HL60 cells are a promyelocytic leukemia human cell line, and HLA-A2.1+LCL cells are an Epstein-Barr virus (EBV)-transformed lymphoblastoid cell line (LCL). Stably transfected cells were selected by culturing in Schneider's medium containing geneticin. Prior to scale up of the cells, expression of the transfected genes is induced by the addition of CuSO4. The level of expression is assessed by flow cytometry using anti-HLA-A2.1, anti-B7.1, anti-LFA-3, anti-ICAM-1 and CD70 antibodies. For efficient in vitro activation of the CD8+ lymphocytes, greater than 30% of the Drosophila cells must express the HLA-A2.1 molecule. The Drosophila cells regularly express each of the molecules at levels between 70-90%. Drosophila aAPC were washed and then incubated at RT for 4 hours with 10 μM of different combinations of mixed peptides or individual peptides (See e.g. U.S. Pat. Nos. 6,225,042, 6,355,479, 6,362,001 and 6,790,662; U.S. Patent Application Publication Nos. 2009/0017000 and 2009/0004142; and International Publication No. WO2007/103009). Purified human CD8+ T cells from HLA-A2 positive donors were then incubated with peptide-loaded Drosophila APC at 37° C., 5% CO2, for 5 days. Human IL-2 (20 U/ml, R&D Systems) and IL-7 (30 U/ml, R&D Systems) were added at day 5 and the activated CD8+ T cells (CTL) were re-stimulated twice, at day 7 and day 15, with non-CD8 adherent cells in a total peripheral blood mononuclear cell (PBMC) preparation from the same donor in the presence of peptides.
A number of different CTL were generated using CD8+ T cells from different donors and different combinations of mixed peptides, including combinations that contained only one peptide. For example, 24 selected peptides were mixed or used individually to create different combinations of peptide mixtures (PM) or individual peptides (P5 and P14) and produce peptide-loaded Drosophila APC. The resulting peptide-loaded Drosophila APC were incubated with CD8+ T cells from 2 different donors (Donor 1 and Donor 2) to produce 11 different batches of CTL (Donor 1: PM1, PM2, PM3, PM4, and P14; Donor 2: PM1, PM2, PM3, PM4, P5, and P14) (Table 3).
CTL (Effector) activity was measured with a standard chromium (^51Cr) release assay, with T2 cells (Target) loaded with individual peptides and also with a number of tumor cell lines as target cells (Brunner et al., Immunology. 1968 February; 14(2):181-96). The highest Effector (E) Target (T) ratio (E/T) was 50:1, with 1:5 serial dilutions of CTL (Effector) used to produce a dose response. Before the assay, Target cells (T2 cells at 3×10^6 cells/100 ul in 1×PBS with 4% FCS) were labeled by adding 100 ul of ^51Cr (Perkin Elmer) and incubating at 37° C. for 1 hour. […]

Where [3] appears, read: truncated versions of P3, P13, P14.

“LVDLPGMT (listed as Homo sapiens) [Peptide P13-11]”: the “HLA-A2 Binding” value in assay [1] (setting [3]) is given as “N”.
The same measure, in the same setting: as for “TLVDLPG (listed as Homo sapiens) [Peptide P13-9]”, the entry is “N”.
As to “LLGPRLVLA (listed as Homo sapiens) [Peptide P1]”, in assay [2], the “Induction of CTL in two normal donors” value is recorded as “induced CTL”, the “CTL Activities Strong” value is listed as 2/10, the “CTL Activities Weak” value was 2/10 and the “CTL Activities None” value is reported as 6/10.
On to “VDLPGMTKV (listed as Homo sapiens) [Peptide P13-2]”, for which, in assay [1] (setting [3]), the “HLA-A2 Binding” value is “N”.
Same read-out and setting: next, “LIDLPGITR (listed as Homo sapiens) [Peptide P14-12]”: “N”.
In the case of “NLLPKLHVV (listed as Homo sapiens) [Peptide P9]”, in assay [2], the “CTL Activities None” value is reported as 2/2.
Consider “TLVDLPGMT (listed as Homo sapiens) [Peptide P13-7]”, for which, in assay [1] (setting [3]), the “HLA-A2 Binding” value is “N”.
Take “KLLEPVLLL (listed as Homo sapiens) [Peptide P6]”: in assay [2], the “CTL Activities Weak” value was 1/3 and the “CTL Activities None” value is 2/3.
Turning to “FMLQTYGQQL (listed as Homo sapiens) [Peptide P14-18]”, the “HLA-A2 Binding” value in assay [1] (computer predicted peptides) is on record as “N”.
As to “LPGMTKV (listed as Homo sapiens) [Peptide P13-4]”, the “HLA-A2 Binding” value in assay [1] (setting [3]) is reported as “N”.
Same read-out and setting: next, “DLPGMTKV (listed as Homo sapiens) [Peptide P13-3]”: “N”; “VDLPGMT (listed as Homo sapiens) [Peptide P13-14]”: “N”.
Same read-out and setting: next, “PGMTKV (listed as Homo sapiens) [Peptide P13-5]”: “N”.
Still for that read-out and setting: as for “LVLNLLEL (listed as Homo sapiens) [Peptide P3-1]”, the entry is “N”.
With “LSLDSSLSSLL (listed as Homo sapiens) [Peptide P17]”, in assay [2], the “Induction of CTL in two normal donors” value is reported as “induced CTL”, the “CTL Activities Strong” value is reported as 4/10, the “CTL Activities Weak” value is reported as 4/10 and the “CTL Activities None” value is reported as 2/10.
Regarding “LPGITRV (listed as Homo sapiens) [Peptide P14-4]”, the “HLA-A2 Binding” value in assay [1] (setting [3]) was “N”.
For the substance “FLLPHPGLQV (listed as Homo sapiens) [Peptide P10]”, in assay [2], the “Induction of CTL in two normal donors” value is recorded as “induced CTL”, the “CTL Activities Strong” value is 1/2 and the “CTL Activities None” value is recorded as 1/2.
As to “PGITRV (listed as Homo sapiens) [Peptide P14-5]”, the “HLA-A2 Binding” value in assay [1] (setting [3]) is “N”.
The same measure, in the same setting: as for “VDLPGMTK (listed as Homo sapiens) [Peptide P13-12]”, the entry is “N”.
Same read-out and setting: next, “SLVLNLL (listed as Homo sapiens) [Peptide P3-5]”: “N”; “DLPGITR (listed as Homo sapiens) [Peptide P14-17]”: “N”.
For the substance “KNPVLLKIL (listed as Homo sapiens) [Peptide P7]”, in assay [2], the “CTL Activities Weak” value is on record as 1/3 and the “CTL Activities None” value is given as 2/3.
As to “LIDLPGITRV (listed as Homo sapiens) [Peptide P14-1]”, the “HLA-A2 Binding” value in assay [1] (setting [3]) was “N”.
On the same count and under the same terms, as for “SLVLNLLE (listed as Homo sapiens) [Peptide P3-4]”, the entry is “N”.
In the case of “LLLDVAYGAVQA (listed as Homo sapiens) [Peptide P22]”, in assay [2], the “CTL Activities Strong” value is recorded as 1/2 and the “CTL Activities None” value is given as 1/2.
On to “LLYQGPHNTL (listed as Homo sapiens) [Peptide P12]”, for which, in assay [2], the “CTL Activities Weak” value is reported as 1/3 and the “CTL Activities None” value is 2/3.
On the same counts, the results for “LLIDDKGTIKL (listed as Homo sapiens) [Peptide P20]” are 1/3 and 2/3.
“ALNEEAGRLLL (listed as Homo sapiens) [Peptide P15]”: in assay [2], the “Induction of CTL in two normal donors” value is given as “induced CTL”, the “CTL Activities Strong” value is 3/9, the “CTL Activities Weak” value is recorded as 5/9 and the “CTL Activities None” value was 1/9.
“RSLFLLYAL (listed as Homo sapiens) [Peptide P4]”: the “CTL Activities Weak” value in assay [2] was 1/1.
As for “YLLPAIVHI (listed as Homo sapiens) [Peptide P8]”, the “CTL Activities None” value in assay [2] is reported as 3/3.
Consider “LLNMPPAHLK (listed as Homo sapiens) [Peptide P11]”, for which, in assay [2], the “CTL Activities Strong” value was 1/2 and the “CTL Activities Weak” value is recorded as 1/2.
Take “FLASESLLKGAL (listed as Homo sapiens) [Peptide P23]”: in assay [2], the “Induction of CTL in two normal donors” value is “induced CTL”, the “CTL Activities Strong” value is listed as 1/2 and the “CTL Activities None” value is given as 1/2.
For “LLLDVPTAAVQA (listed as Homo sapiens) [Peptide P21]”, in assay [2], the “CTL Activities Strong” value is listed as 1/3 and the “CTL Activities None” value is 2/3.
For the substance “HSLDNSLSILR (listed as Homo sapiens) [Peptide P16]”, the “CTL Activities None” value in assay [2] is recorded as 2/2.
On to “VLIPKLPQL (listed as Homo sapiens) [Peptide P5]”, for which, in assay [2], the “Induction of CTL in two normal donors” value is “induced CTL”, the “CTL Activities Weak” value is 1/3 and the “CTL Activities None” value is 2/3.

Values taken from patent publication US8232101B2, “Identification of antigenic peptides from multiple myeloma cells” (Janssen Pharmaceutica N.V., priority 2009, dated 2012).
